Experimental findings from patent US20120108501A1, “Protease Inhibitors” (priority 2009, published 2012) are described below.

The data set can be described thus: Pharmacokinetics of released PEGylated protease inhibitor following P.O. administration of prodrugs in rats. It is filed as in vivo, male Sprague-Dawley rats. Set-up: AUCall Mean: concentration or dose not given beside the values; C24 Mean: unit not given here. The conditions noted are these: rats (n = 4-5); for C24 Mean: concentration at 24 hours. As to the method: Pharmacokinetic analysis of protease inhibitors described herein was conducted. To evaluate the pharmacokinetics of PEGylated protease inhibitor conjugates with releasable lipophilic attachments, test compounds were administered to male Sprague-Dawley rats.
At various times following test article administration, serial blood samples were collected from indwelling jugular vein catheters and transferred to micro-tubes containing 7.5 μL of 20% w/v K2EDTA as an anticoagulant. Following processing of the blood samples to plasma (10 minutes at 10000 rpm, Centrifuge Model: Kubota 3500), plasma concentrations of the test article or corresponding PEGylated molecule released from the test article was measured using LC-MS/MS methods. Pharmacokinetic parameters were estimated using noncompartmental methods.

[1] abbreviates: mPEG3-atazanavir in plasma after PO administration of mPEG3-ATV or of the listed prodrug.
The mark [2] stands for this setting: mPEG5-atazanavir in plasma after PO administration of mPEG5-ATV or of the listed prodrug.
The mark [3] stands for this setting: mPEG6-atazanavir in plasma after PO administration of mPEG6-ATV or of the listed prodrug.

Regarding `COCCOCCOCCOC(=O)N[C@H](C(=O)N[C@@H](Cc1ccccc1)[C@H](CN(Cc1ccc(-c2ccccn2)cc1)NC(=O)[C@@H](NC(=O)OC)C(C)(C)C)OP(=O)(O)O)C(C)(C)C` [mPEG3-ATV-phosphate, mPEG3-atazanavir phosphate], under setting [1], the “AUCall Mean” value worked out at 16.8 ng·h/mL, the “Cmax Mean” value stood at 1.66 ng/mL, the “MRT last Mean” value came to 7.37 h and the “Tmax* Median” value worked out at 1.25 h.
For the compound `CCCC(=O)O[C@@H](CN(Cc1ccc(-c2ccccn2)cc1)NC(=O)[C@@H](NC(=O)OC)C(C)(C)C)[C@H](Cc1ccccc1)NC(=O)[C@@H](NC(=O)OCCOCCOCCOC)C(C)(C)C` [C3H7CO-mPEG3-ATV, mPEG3-Atazanavir Butyrate], under setting [1], the “C24 Mean” value is recorded as 0.00, the “AUCall Mean” value stood at 11.4 ng·h/mL, the “Cmax Mean” value came out at 3.08 ng/mL and the “MRT last Mean” value came out at 1.56 h. The “Tmax* Median” value under setting [1] is 1.00 h.
Regarding `COCCOCCOCCOCCOCCOC(=O)N[C@H](C(=O)N[C@@H](Cc1ccccc1)[C@@H](O)CN(Cc1ccc(-c2ccccn2)cc1)NC(=O)[C@@H](NC(=O)OC)C(C)(C)C)C(C)(C)C` [PEG5-ATV, mPEG5-atazanavir], under setting [2], the “AUCall Mean” value is 389 ng·h/mL, the “Cmax Mean” value is on record as 57.6 ng/mL, the “MRT last Mean” value was found to be 9.61 h and the “Tmax Median” value amounted to 0.750 h.
With `CCCCCC(=O)O[C@@H](CN(Cc1ccc(-c2ccccn2)cc1)NC(=O)[C@@H](NC(=O)OC)C(C)(C)C)[C@H](Cc1ccccc1)NC(=O)[C@@H](NC(=O)OCCOCCOCCOC)C(C)(C)C` [C5H11CO-mPEG3-ATV, C5H11CO-mPEG3-atazanavir], under setting [1], the “AUCall Mean” value was 33.9 ng·h/mL, the “Cmax Mean” value is 7.51 ng/mL, the “MRT last Mean” value stood at 2.78 h and the “Tmax* Median” value came to 2.00 h.
Regarding `CCCC(=O)OC(CN(Cc1ccc(-c2ccccn2)cc1)NC(=O)C(NC(=O)OC)C(C)(C)C)C(Cc1ccccc1)NC(=O)C(NC(=O)OCCOCCOCCOCCOCCOC)C(C)(C)C` (stereo not shown) [C3H7CO-mPEG5-ATV, mPEG5-Atazanavir Butyrate], under setting [2], the “C24 Mean” value was found to be 0.00, the “AUCall Mean” value was determined as 3.92 ng·h/mL, the “Cmax Mean” value amounted to 1.44 ng/mL and the “MRT last Mean” value was found to be 0.984 h. The “Tmax Median” value under setting [2] came out at 1.00 h.
For `CCNC(=O)OC(CN(Cc1ccc(-c2ccccn2)cc1)NC(=O)C(NC(=O)OC)C(C)(C)C)C(Cc1ccccc1)NC(=O)C(NC(=O)OCCOCCOCCOCCOCCOCCOC)C(C)(C)C` (stereo not shown) [mPEG6-ATV-ethylcarbamate, mPEG6-Atazanavir-NH-ethyl carbamate], under setting [3], the “AUCall Mean” value came to 3.07 ng·h/mL, the “Cmax Mean” value worked out at 0.634 ng/mL, the “MRT last Mean” value turned out to be 15.1 h and the “Tmax Median” value turned out to be 1.00 h.
On to `COCCOCCOCCOCCOCCOC(=O)NC(C(=O)NC(Cc1ccccc1)C(CN(Cc1ccc(-c2ccccn2)cc1)NC(=O)C(NC(=O)OC)C(C)(C)C)OC(=O)CNC(=O)C(N)CC(C)C)C(C)(C)C.Cl` (stereo not drawn) [Leu-Gly-mPEG5-Atazanavir HCl, Leu-Gly-mPEG5-Atazanavir Hydrochloride], for which, under setting [2], the “C24 Mean” value amounted to 18.1, the “AUCall Mean” value stood at 344 ng·h/mL, the “Cmax Mean” value was found to be 19.5 ng/mL and the “MRT last Mean” value was 11.3 h. The “Tmax Median” value under setting [2] was determined as 12.0 h.
`COCCOCCOCCOC(=O)N[C@H](C(=O)N[C@@H](Cc1ccccc1)[C@H](CN(Cc1ccc(-c2ccccn2)cc1)NC(=O)[C@@H](NC(=O)OC)C(C)(C)C)OC(C)=O)C(C)(C)C` [Acetyl-mPEG3-ATV, O-Acetyl-mPEG3-Atazanavir]: under setting [1], the “AUCall Mean” value was determined as 5.63 ng·h/mL, the “Cmax Mean” value turned out to be 2.43 ng/mL, the “MRT last Mean” value turned out to be 1.01 h and the “Tmax* Median” value worked out at 0.750 h.
The like results for `COCCOCCOCCOC(=O)NC(C(=O)NC(Cc1ccccc1)C(CN(Cc1ccc(-c2ccccn2)cc1)NC(=O)C(NC(=O)OC)C(C)(C)C)OC(=O)C(N)C(C)C)C(C)(C)C.Cl` [mPEG3-ATV-L-valine, mPEG3-Atazanavir-L-valine HCl] were, in that order, 70.4 ng·h/mL, 11.8 ng/mL, 4.45 h and 0.500 h.
Take `COCCOCCOCCOCCOCCOC(=O)NC(C(=O)NC(Cc1ccccc1)C(CN(Cc1ccc(-c2ccccn2)cc1)NC(=O)C(NC(=O)OC)C(C)(C)C)OC(=O)C(N)C(C)C)C(C)(C)C.Cl` [mPEG5-ATV-L-valine, mPEG5-Atazanavir-L-valine HCl]: under setting [2], the “AUCall Mean” value was 9.14 ng·h/mL, the “Cmax Mean” value is given as 1.09 ng/mL, the “MRT last Mean” value came out at 6.89 h and the “Tmax Median” value amounted to 1.00 h.
Consider `CCCCCCCCCCCCCCCCOCC(COP(=O)(O)OC(CN(Cc1ccc(-c2ccccn2)cc1)NC(=O)C(NC(=O)OC)C(C)(C)C)C(Cc1ccccc1)NC(=O)C(NC(=O)OCCOCCOCCOC)C(C)(C)C)OC` (stereo not shown) [PEG3-Atazanavir Monophospholipid, mPEG3-atazanavir monophospholipid], for which, under setting [1], the “AUCall Mean” value was found to be 7.72 ng·h/mL, the “Cmax Mean” value is reported as 18.7 ng/mL, the “MRT last Mean” value was determined as 0.640 h and the “Tmax* Median” value is 0.250 h.
The like results for `COCCOCCOCCOC(=O)N[C@H](C(=O)N[C@@H](Cc1ccccc1)[C@H](CN(Cc1ccc(-c2ccccn2)cc1)NC(=O)[C@@H](NC(=O)OC)C(C)(C)C)OCOCCOC)C(C)(C)C` [mPEG3 ATV-Methyl ethyl methyl ether, mPEG3-Atazanavir Methyl Ethyl Methyl Ether] were, in that order, 4.10 ng·h/mL, 0.951 ng/mL, 1.93 h and 2.00 h.
Take `COCCOCCOCCOCCOCCOCCOC(=O)NC(C(=O)NC(Cc1ccccc1)C(CN(Cc1ccc(-c2ccccn2)cc1)NC(=O)C(NC(=O)OC)C(C)(C)C)OC(=O)COCCOC(=O)C(Cc1ccccc1)NC(=O)C(N)Cc1ccccc1)C(C)(C)C` (stereo not shown) [mPEG6-ATV-CME-Phe-Phe, mPEG6-atazanavir-ethoxy-CME-Phe-Phe]: under setting [3], the “AUCall Mean” value amounted to 102 ng·h/mL, the “Cmax Mean” value came out at 7.06 ng/mL, the “MRT last Mean” value was found to be 21.4 h and the “Tmax Median” value amounted to 3.25 h.
As for `COCCOCCOCCOCCOCCOCCOC(=O)NC(C(=O)NC(Cc1ccccc1)C(CN(Cc1ccc(-c2ccccn2)cc1)NC(=O)C(NC(=O)OC)C(C)(C)C)OP(=O)(O)O)C(C)(C)C` (stereo not shown) [mPEG6-ATV-phosphate, mPEG6-atazanavir phosphate], under setting [3], the “AUCall Mean” value was found to be 12.1 ng·h/mL, the “Cmax Mean” value turned out to be 1.23 ng/mL, the “MRT last Mean” value amounted to 23.4 h and the “Tmax Median” value amounted to 6.13 h.
The like results for “mPEG6-atazanavir-ethoxy-CME-Leu-Leu [mPEG6-ATV-Ethoxy-CM-Leu-Leu]” were, in that order, 40.6 ng·h/mL, 2.07 ng/mL, 13.8 h and 4.00 h.
For the compound `COCCOCCOCCOCCOCCOC(=O)N[C@H](C(=O)N[C@@H](Cc1ccccc1)[C@H](CN(Cc1ccc(-c2ccccn2)cc1)NC(=O)[C@@H](NC(=O)OC)C(C)(C)C)OP(=O)(O)O)C(C)(C)C` [mPEG5-ATV-phosphate, mPEG5-atazanavir phosphate], under setting [2], the “AUCall Mean” value is 23.1 ng·h/mL, the “Cmax Mean” value came out at 1.52 ng/mL, the “MRT last Mean” value amounted to 10.9 h and the “Tmax Median” value came out at 7.00 h.
